{
  "source": "patent US11504410B2",
  "about": "“Neuroprotection and neuroregeneration by pterostilbene and compositions thereof” (THERAPEUTIC SOLUTIONS INTERNATIONAL, INC., priority 2020, dated 2022)",
  "key": {"[1]": {"tested_on": "classical complement activation pathway", "conditions": "15 U intravenously, cited from earlier work"}, "[2]": {"tested_on": "classical complement activation pathway", "conditions": "cited from earlier work"}, "[3]": {"experiment": "Relative bioavailability of pterostilbene", "type": "in vivo", "conditions": "compared with creatine monohydrate", "from_the_text": "Without being bound by any particular theory, due to its improved solubility, pterostilbene is also expected to have better oral absorption properties compared to various other neuroprotectants. As used herein, “bioavailability” refers to the rate and amount of a drug or supplement that reaches the systemic circulation of a patient following administration of the drug or supplement. […] The terms “treatment,” “treating,” and “treat, are used herein to refer generally to obtaining a desired pharmacological and/or physiological effect. The effect may be prophylactic in terms of completely or partially preventing a disease or symptom thereof and/or may be therapeutic in terms of a partial or complete stabilization or cure for a disease and/or adverse effect attributable to the disease. “Treatment” as used herein covers any treatment of a disease in a subject, and includes: (a) preventing the disease or symptom from occurring in a subject which may be predisposed to the disease or symptom, but has not yet been diagnosed as having it; (b) inhibiting the disease symptom, i.e., arresting its development; or (c) relieving the disease symptom, i.e., causing regression of the disease or symptom."}},
  "data": [
    {"compound": "C1-INH: C1-esterase inhibitor, inhibits the classical complement activation pathway", "values": [
      {"measurement": "improvement of focal neurologic deficits", "setting": "[1]; 48 hours after ischemia", "result": 54, "unit": "%"},
      {"measurement": "improvement of general neurologic deficits", "setting": "[1]; 48 hours after ischemia", "result": 36, "unit": "%"},
      {"measurement": "infarct volume of total brain", "setting": "[1]; 48 hours after ischemia", "result": 6.69, "unit": "%+/−2.93%"},
      {"measurement": "neutral red staining in cortex, hippocampus, and striatum", "setting": "[1]", "result": "strong protective effect"},
      {"measurement": "mean arterial blood pressure (MABP) and arterial blood gases", "setting": "[2]; rat, in vivo", "result": "unaffected by the treatment"},
      {"measurement": "regional cerebral blood flow (rCBF)", "setting": "[2]; rats, after occlusion, versus vehicle", "result": "No difference was noted between experimental groups"},
      {"measurement": "reduction of infarct volume", "setting": "[2]; rats, infusion over 30 min after occlusion, evaluated after 5 days survival", "result": 72, "unit": "%"}
    ]},
    {"compound": "COc1cc(/C=C/c2ccc(O)cc2)cc(OC)c1", "note": "[pterostilbene]", "values": [
      {"measurement": "relative bioavailability greater than creatine monohydrate", "setting": "[3]", "result": "at least 50%"}
    ]}
  ]
}
